Laboratory results published in US20110105397A1, “METHOD FOR TREATING HEART FAILURE WITH STRESSCOPIN-LIKE PEPTIDES” (priority 2009, published 2011).
Several values for one entry are separate records, joined by “and”; a condition that tells them apart may be missing. Identical values can stand only once. Like-named read-outs stand apart in the source and are kept apart here.

Key:
[1] = molecular target: T1, human CRHR2 (Homo sapiens, UniProt Q13324); test: cAMP assay, h-CRHR2 transfected SK-N-MC cells; assay type: cell-based; details: for nH (Hill slope) / αmax (maximal asymptote): h-CRHR2; for αmax (maximal asymptote): in %
T1 construct: expressed in transfected cells
T1 sequence (Q13324 1-411): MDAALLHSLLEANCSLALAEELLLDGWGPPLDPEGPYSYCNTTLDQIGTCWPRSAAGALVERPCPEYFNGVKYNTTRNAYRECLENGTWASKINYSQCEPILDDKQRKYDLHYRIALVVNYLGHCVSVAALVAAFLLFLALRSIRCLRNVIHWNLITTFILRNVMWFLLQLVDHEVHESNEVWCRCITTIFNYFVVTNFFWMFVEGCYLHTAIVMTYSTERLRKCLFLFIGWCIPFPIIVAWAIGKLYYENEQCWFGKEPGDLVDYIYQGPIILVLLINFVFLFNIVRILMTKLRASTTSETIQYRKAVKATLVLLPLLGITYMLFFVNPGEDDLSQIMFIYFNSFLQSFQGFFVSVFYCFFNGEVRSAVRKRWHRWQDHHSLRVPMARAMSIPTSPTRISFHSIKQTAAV
Summary of the method: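 SK-N-MC cells stably expressing human CRHR2 were treated with peptides (1 pM to 1 μM) for 60 min at 37 °C in IBMX-containing medium, with 10 μM forskolin as positive control. Cells were lysed with 0.5 M HCl and cAMP measured by [125I]-cAMP competition flash plate. A50 came from Hill-equation fits, normalised to h-SCP maximum.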

[2] = molecular target: T1, human CRHR2; test: CRHR2 radioligand binding, [125I]-anti-sauvagine-30, SK-N-MC membranes; details: for Ki / nH: CRHR2
Procedure: The binding profile of h-SCP (SEQ ID NO:1) at CRHR2 was determined in radioligand binding studies in a membrane preparation of SK-N-MC cells stably transfected with human CRHR2 using [^125I]-anti-sauvagine-30 as the radiolabel. […] The solution was then homogenized with a Polytron tissue grinder at a setting of 10 and 7×3 s (Brinkmann Instruments, Westbury, N.Y.). […] The supernatant was re-centrifuged at 26,892×g for 25 min at 4° Celsius with the final pellet being re-suspended in assay buffer. […] For competition studies, cell membranes of […] volume were incubated with either 60 pM [^125I]-anti-sauvagine-30 in 50 μl volume for the CRHR2 assay or with)[^125I]-([…]-sauvagine for the CRHR1 assay in the presence of 15 μl of competing ligand for 120 min having a total volume of 150 μl. […] The bound radioactivity was separated by filtration using a Multiscreen Resist manifold (Millipore Corp., Billerica, Mass., U.S.A). The filters were washed three times with ice-cold PBS at pH 7.5 and radioactivity retained on the filters was quantified by its liquid scintillation measured by a TopCount counter (Packard BioScience, Boston, Mass., U.S.A). All experiments were performed in triplicate. Data from individual competition curves were expressed as the percentage of specific [^125I]-anti-sauvagine-30 or)[^125I]-([…]-sauvagine binding (B) within each experiment. […] The competition curve obtained with h-SCP (SEQ ID NO:1) was biphasic.

[3] = Table 11, h-CRHR2 transfected SK-N-MC cells, 1 hr at 37° Celsius, read-out: pA50 (Experimental) (converted)

Row | Compound | nH (Hill slope) ([1]; Table 11) | αmax (maximal asymptote) ([1]; Table 11) | EC50 [1, 3] | Ki [2] [nM] | nH [2] | nH (Hill slope) ([1]; Table 11, listed as h-SRP) | αmax (maximal asymptote) ([1]; Table 11, listed as h-SRP) | nH (Hill slope) ([1]; Table 11, listed as h-SCP) | αmax (maximal asymptote) ([1]; Table 11, listed as h-SCP) | nH ([1]; Table 12) | αmax ([1]; Table 12, normalized to the maximum response to h-SCP) | EC50 ([1]; Table 13, cysteine mutation, N-ethylmaleimide capping, pegylation, read-out: pA50 (converted)) [nM] | nH ([1]; Table 14) | αmax ([1]; Table 14, % of the maximum response obtained to h-SCP) [%] | EC50 ([1]; Table 14, read-out: pA50 (converted)) [nM] | competition curve / binding profile ([2]; CRHR2, [125I]-anti-sauvagine-30) | IC50 ([2]; biphasic competition curve, read-out: low pIC50 (low affinity receptor binding state) (converted)) [nM]
1 | CC[C@H](C)[C@H](NC(=O)[C@H](CO)NC(=O)[C@H](CC(C)C)NC(=O)[C@@H]1CCCN1C(=O)[C@@H]1CCCN1C(=O)[C@H](CC(=O)O)NC(=O)[C@@H](N)CC(=O)O)C(=O)N[C@@H](CC(=O)O)C(=O)N[C@@H](CC(C)C)C(=O)N[C@H](C(=O)N[C@@H](Cc1ccccc1)C(=O)N[C@@H](Cc1c[nH]cn1)C(=O)N[C@@H](CC(C)C)C(=O)N[C@@H](CC(C)C)C(=O)N[C@@H](CCCNC(=N)N)C(=O)N[C@H](C(=O)N[C@@H](CC(C)C)C(=O)N[C@@H](CC(C)C)C(=O)N[C@@H](CCC(=O)O)C(=O)N[C@@H](CC(C)C)C(=O)N[C@@H](C)C(=O)N[C@@H](CCCNC(=N)N)C(=O)N[C@H](C(=O)N[C@@H](CCC(N)=O)C(=O)N[C@@H](CO)C(=O)N[C@@H](CCC(N)=O)C(=O)N[C@@H](CCCNC(=N)N)C(=O)N[C@@H](CCC(=O)O)C(=O)N[C@@H](CCCNC(=N)N)C(=O)N[C@@H](C)C(=O)N[C@@H](CCC(=O)O)C(=O)N[C@@H](CCC(N)=O)C(=O)N[C@@H](CC(N)=O)C(=O)N[C@@H](CCCNC(=N)N)C(=O)N[C@H](C(=O)N[C@H](C(=O)N[C@@H](Cc1ccccc1)C(=O)N[C@@H](CC(=O)O)C(=O)N[C@@H](CO)C(=O)N[C@H](C(N)=O)C(C)C)[C@@H](C)CC)[C@@H](C)CC)[C@@H](C)O)[C@@H](C)O)[C@@H](C)O [SEQ ID NO: 114, DDPPLSIDLTFHLLRTLLELARTQSQRERAEQNRIIFDSV-NH2] | 1.07 | 110.5 | 0.832 nM | 3.09 | 1.19 ± 0.14 | – | – | – | – | – | – | – | – | – | – | – | –
2 | H-HPGSRIVLSLDVPIGLLQILLEQARARAAREQATTNARILARV-NH2 [SEQ ID NO: 117, HPGSRIVLSLDVPIGLLQILLEQARARAAREQATTNARILARV-NH2, reference compound] | – | – | 0.479 nM and 0.263 nM and 0.589 nM | 26.9 | 1.26 ± 0.14 | 1.08 and 1.06 and 0.99 | 113.5 and 108.7 and 98.56 | – | – | – | – | – | – | – | – | – | –
3 | H-TKFTLSLDVPTNIMNLLFNIAKAKNLRAQAAANAHLMAQI-NH2 [SEQ ID NO: 1, TKFTLSLDVPTNIMNLLFNIAKAKNLRAQAAANAHLMAQI-NH2] | – | – | 0.389 nM and 0.708 nM and 0.437 nM and 0.407 nM | 1950 | 1.00 ± 0.04 | – | – | 0.99 and 1.04 and 1.39 and 1.55 | 99.31 and 97.53 and 116.1 and 98.2 | 1.18 | 98.68 | 0.182 to 0.339 | 1.26 | 100.1 | 0.398 | biphasic | 251
